Publication PMC13229503, “Dissecting mechanisms of ligand binding and conformational changes in the glutamine-binding protein” (eLife, 2026)
Read-outs that look alike come from different tables or passages of the source.

Assays:
GlnBP(111 C-192C) [1] = target: T1, GlnBP(111 C-192C) (Escherichia coli, UniProt P0AEQ3, G214C/V133C); assay: ITC of ligand binding to refolded, unlabeled GlnBP(111C-192C)
T1 construct: made in house; host or cells: E. coli BL21-pLysS
Method: (§1) The ITC measurements were performed in a MicroCal PEAQ-ITC isothermal titration calorimeter (Malvern Instruments). The prediction ITC software ‘MicroCal PEAQ-ITC Control’ was employed for designing and conducting the experiments. Once the Kd value and the binding stoichiometry (N) were assigned as predefined values, the concentration of both the protein and the titrant (ligand) stock solutions could be calculated by the ‘design-experiment’ function on the software to get an optimal sigmoidal one-site binding curve. GlnBP concentration was assessed using the Nanophotometer (N60 Touch, Implen GmbH) with at least three reading repeats to get accurate determinations of concentration values. For all ITC measurements, the temperature was set at 25 °C with stirring speed at 750 rev/min. The GlnBPs solution (10 μM in PBS buffer pH 7.4, 300 μL) was manually loaded into the sample cell. The titrant (L-glutamine, 100 μM in PBS buffer, pH 7.4) was automatically loaded into the titration syringe and injected in the sample cell with a titration speed of 2 μL every 150 s and a total of 19 injections. As a control experiment, L-glutamine was titrated into the sample cell containing PBS buffer without GlnBPs. All the titration data were analyzed using the MicroCal PEAQ-ITC Analysis Software.

GlnBP(59 C-130C) = target: T2, GlnBP(59 C-130C) (Escherichia coli, UniProt P0AEQ3, T152C/T81C); assay: ITC of ligand binding to refolded, unlabeled GlnBP(59C-130C)
T2 construct: made in house; host or cells: E. coli BL21-pLysS
Method: as §1

GlnBP(111 C-192C) [2] = target: T1, GlnBP(111 C-192C); assay: Diffusion-based smFRET (µsALEX) ligand titration of doubly-labeled GlnBP(111C-192C); type: binding; settings: millimolar ligand, GlnBP(111C-192C) and GlnBP(59C-130C), AF555/AF647
Method: The refolded GlnBP(111 C-192C) and GlnBP(59 C-130C) variants were labeled with commercial maleimide derivatives of AF555/AF647 or ATTO 532/ATTO 643 ([Gebhardt et al., 2021]), and then purified by SEC. […] First, the His-tagged protein was incubated in 10 mM DTT in PBS buffer for 30 min to reduce all oxidized cysteine residues. Subsequently, the protein was diluted 10 times with PBS buffer and immobilized on a Nickel Sepharose 6 Fast Flow resin (GE Healthcare). The resin was washed extensively with milliQ water followed by PBS buffer pH 7.4. To remove the excess of DTT, the resin was washed with PBS buffer. […]
Single-molecule μsALEX experiments were carried out at room temperature on a custom-built confocal microscope. […] In general, the 532 and 640 nm diode lasers operated at 60 and 25 μW, respectively (measured at the back aperture of the objective), unless stated otherwise. Fluorescence light was collected by the same objective, focused onto a 50 μm pinhole and separated into two spectral channels (donor and acceptor fluorescence) by a dichroic beamsplitter (H643 LPXR, AHF, Germany). Fluorescence emission was collected by two avalanche photodiodes (SPCM-AQRH-64, Excelitas) after additional filtering (donor channel: BrightLine HC 582/75 and acceptor channel: Longpass 647 LP Edge Basic, both from Semrock, USA). […]

GlnBP [3] = settings: cited from earlier work
GlnBP [4] = tested on: GlnBP; set-up: method as in Berntsson et al., 2010; settings: numerical fits of stopped-flow relaxation curves, Gln:GlnBP 1:1 and 2:1; ref Berntsson et al., 2010; cited from earlier work

T1 sequence (P0AEQ3 23-248 V133C/G214C): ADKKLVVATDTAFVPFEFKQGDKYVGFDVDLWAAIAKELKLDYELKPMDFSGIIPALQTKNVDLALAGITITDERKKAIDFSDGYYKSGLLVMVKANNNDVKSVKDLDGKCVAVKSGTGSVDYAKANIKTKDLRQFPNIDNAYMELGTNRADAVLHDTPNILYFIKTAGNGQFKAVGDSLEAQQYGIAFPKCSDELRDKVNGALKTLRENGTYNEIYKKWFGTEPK
T2 sequence (P0AEQ3 23-248 T81C/T152C): as the sequence (P0AEQ3 23-248 V133C/G214C) above, with T59C, C111V, T130C, C192G counted along it

SMILES | Kd (GlnBP(111 C-192C) [1]) [µM] | Kd (GlnBP(59 C-130C)) [µM] | ligand-induced FRET shift (conformational change) (GlnBP(111 C-192C) [2]) | affinity (GlnBP [3]; arginine, ref Chen et al., 2020) | effective on-rate constant (GlnBP [4]) | affinity (GlnBP [3]; L-glutamine, ref Pistolesi and Tjandra, 2012, Su et al., 2007)
N=C(N)NCCC[C@H](N)C(=O)O [L-Arginine] | 421 ± 292 | 737 ± 133 | hardly any FRET shifts | millimolar affinity | – | –
NC(=O)CC[C@H](N)C(=O)O [L-glutamine] | – | – | – | – | about 10^8 M^–1s^–1 | sub-micromolar affinity
